Patent US8362000B2, “Azetidinyl diamides as monoacylglycerol lipase inhibitors” (Janssen Pharmaceutica NV, priority 2009, dated 2013)
Where two headings read alike, the source gives them in different places.

Experiments:
MGL = molecular target: T1, MGL (Rattus norvegicus, UniProt Q8R431); test: 2-AG accumulation assay in rat brain homogenate; format: biochemical; conditions: rat brain homogenate, 2-AG accumulation as percent of vehicle; for 2-AG accumulation, % of vehicle control at 10 µM: compound 10 μM, read-out: Rat Brain 2AG % VehCntrl (%) @ 10 μM; for 2-AG accumulation, % of vehicle control at 1 µM: read-out: Rat Brain 2AG % VehCntrl (%) @ 1 μM
T1 construct: one g rat brain was homogenized using a Polytron homogenizer; from tissue; host or cells: rat brain homogenate
T1 sequence (Q8R431 1-303): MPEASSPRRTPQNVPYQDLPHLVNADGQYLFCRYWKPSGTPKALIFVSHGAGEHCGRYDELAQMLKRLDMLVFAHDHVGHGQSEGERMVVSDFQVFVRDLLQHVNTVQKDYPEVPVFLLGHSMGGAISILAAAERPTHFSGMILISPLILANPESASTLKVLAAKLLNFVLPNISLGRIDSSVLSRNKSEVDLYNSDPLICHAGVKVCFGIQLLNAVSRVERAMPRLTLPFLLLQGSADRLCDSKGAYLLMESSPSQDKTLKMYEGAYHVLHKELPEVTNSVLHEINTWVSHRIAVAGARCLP

mutant MGL = molecular target: T2, mutant MGL (Homo sapiens, UniProt Q99685, L169S/L176S); test: MGL ThermoFluor assay - mutant; format: binding; conditions: read-out: MGL mutant ThermoFluor Kd
T2 sequence (Q99685 1-303 L169S/L176S): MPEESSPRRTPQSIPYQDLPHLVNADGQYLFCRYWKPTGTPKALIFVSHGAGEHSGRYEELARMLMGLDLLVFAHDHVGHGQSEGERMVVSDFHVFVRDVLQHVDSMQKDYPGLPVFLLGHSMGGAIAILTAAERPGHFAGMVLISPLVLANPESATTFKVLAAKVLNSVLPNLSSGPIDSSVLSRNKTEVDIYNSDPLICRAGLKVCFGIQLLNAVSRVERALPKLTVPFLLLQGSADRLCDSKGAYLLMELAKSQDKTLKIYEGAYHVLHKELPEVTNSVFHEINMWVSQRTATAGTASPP

[1] = ThermoFluor thermal stability binding assay
[2] = ThermoFluor concentration-response

| 2-AG accumulation, % of vehicle control at 10 µM (MGL) | SMILES | other results |
| --- | --- | --- |
| 652% | O=C(c1ccc(-c2ccc(F)cc2F)cc1)N1CC(N2CCN(C(=O)c3cscn3)CC2)C1 [Cpd 226, 1-{1-[(2′,4′-Difluorobiphenyl-4-yl)carbonyl]azetidin-3-yl}-4-(1,3-thiazol-4-ylcarbonyl)piperazine] | Kd (mutant MGL; [1]): 20 nM |
| – | Cc1nc(COc2ccc(Cl)cc2)sc1C(=O)N1CC(N2CCN(C(=O)c3nccs3)CC2)C1 [Cpd 965] | 2-AG accumulation, % of vehicle control at 1 µM (MGL; compound 1 μM): 591%; Kd (mutant MGL; [2]): 35 nM |
| – | O=C(c1ccc(C(F)(F)c2ccccc2)cc1)N1CC(N2CCN(C(=O)c3nccs3)CC2)C1 [Cpd 986, 1-[1-({4-[Difluoro(phenyl)methyl]phenyl}carbonyl)azetidin-3-yl]-4-(1,3-thiazol-2-ylcarbonyl)piperazine] | 2-AG accumulation, % of vehicle control at 1 µM (MGL; compound 1 μM): 626%; Kd (mutant MGL; [2]): 5 nM |
| – | O=C(c1ccc(-c2ccccc2)c(F)c1)N1CC(N2CCN(C(=O)c3cscn3)CC2)C1 [Cpd 170, 1-{1-[(2-Fluorobiphenyl-4-yl)carbonyl]azetidin-3-yl}-4-(1,3-thiazol-4-ylcarbonyl)piperazine] | 2-AG accumulation, % of vehicle control at 1 µM (MGL; compound 1 μM): 205%; Kd (mutant MGL; [2]): 60.6 nM |
| – | O=C(c1ccccc1)N1CCN(C2CN(C(=O)c3ccc(COc4cccc(Cl)c4)cc3)C2)CC1 [Cpd 548] | 2-AG accumulation, % of vehicle control at 1 µM (MGL; compound 1 μM): 280%; Kd (mutant MGL; [2]): 62 nM |
| – | O=C(c1cscn1)N1CCN(C2CN(C(=O)c3cc4cc(C(F)(F)F)ccc4s3)C2)CC1 [Cpd 908] | 2-AG accumulation, % of vehicle control at 1 µM (MGL; compound 1 μM): 217%; Kd (mutant MGL; [1]): 93 nM |
| – | O=C(c1ccc2c(c1)CCCN2Cc1ccccc1)N1CC(N2CCN(C(=O)c3nccs3)CC2)C1 [Cpd 370, 1-Benzyl-6-({3-[4-(1,3-thiazol-2-ylcarbonyl)piperazin-1-yl]azetidin-1-yl}carbonyl)-1,2,3,4-tetrahydroquinoline] | 2-AG accumulation, % of vehicle control at 1 µM (MGL; compound 1 μM): 888%; Kd (mutant MGL; [1]): 1 nM |
| – | O=C(c1cc[nH]c1)N1CCN(C2CN(C(=O)c3ccc(-c4ccccc4)cc3)C2)CC1 [Cpd 311, 1-[1-(Biphenyl-4-ylcarbonyl)azetidin-3-yl]-4-(1H-pyrrol-3-ylcarbonyl)piperazine] | 2-AG accumulation, % of vehicle control at 1 µM (MGL; compound 1 μM): 125%; Kd (mutant MGL; [1]): 80 nM |
| 230% | O=C(c1ccccc1)N1CCN(C2CN(C(=O)c3ccc(Cc4ccccc4)s3)C2)CC1 [Cpd 321, 1-{1-[(5-Benzylthiophen-2-yl)carbonyl]azetidin-3-yl}-4-(phenylcarbonyl)piperazine] | – |
| 737% | CC(C)(C)OC(=O)N1CC[C@H](Oc2ccc(C(=O)N3CC(N4CCN(C(=O)c5ccccc5)CC4)C3)cc2)C1 [Cpd 434, tert-Butyl (3S)-3-[4-({3-[4-(phenylcarbonyl)piperazin-1-yl]azetidin-1-yl}carbonyl)phenoxy]pyrrolidine-1-carboxylate] | – |
| 193% | O=C(c1ccccc1)N1CCN(C2CN(C(=O)c3ccc(-c4ccc(C(F)(F)F)cc4)cc3)C2)CC1 [Cpd 75, 1-(Phenylcarbonyl)-4-(1-{[4′-(trifluoromethyl)biphenyl-4-yl]carbonyl}azetidin-3-yl)piperazine] | – |
| 623% | O=C(CCc1ccccc1Cl)N1CC(N2CCN(C(=O)c3nccs3)CC2)C1 [Cpd 273, 1-{1-[3-(2-Chlorophenyl)propanoyl]azetidin-3-yl}-4-(1,3-thiazol-2-ylcarbonyl)piperazine] | – |
| 910% | O=C(c1ccc(-c2ccc(F)cc2F)cc1)N1CC(N2CCN(C(=O)c3nccs3)CC2)C1 [Cpd 179, 1-{1-[(2′,4′-Difluorobiphenyl-4-yl)carbonyl]azetidin-3-yl}-4-(1,3-thiazol-2-ylcarbonyl)piperazine] | – |
| 625% | COc1ccc(-c2ccc(C(=O)N3CC(N4CCN(C(=O)c5nccs5)CC4)C3)cc2)cc1C=O [Cpd 216, 4-Methoxy-4′-({3-[4-(1,3-thiazol-2-ylcarbonyl)piperazin-1-yl]azetidin-1-yl}carbonyl)biphenyl-3-carbaldehyde] | – |
| 814% | O=C(c1ccc2c(Br)cccc2c1)N1CC(N2CCN(C(=O)c3nccs3)CC2)C1 [Cpd 313, 1-{1-[(5-Bromonaphthalen-2-yl)carbonyl]azetidin-3-yl}-4-(1,3-thiazol-2-ylcarbonyl)piperazine] | – |
| – | O=C(c1cscn1)N1CCN(C2CN(C(=O)c3cc4c(C(F)(F)F)cccc4s3)C2)CC1 [Cpd 334, 1-(1,3-Thiazol-4-ylcarbonyl)-4-(1-{[4-(trifluoromethyl)-1-benzothiophen-2-yl]carbonyl}azetidin-3-yl)piperazine] | 2-AG accumulation, % of vehicle control at 1 µM (MGL; compound 1 μM): 259% |

| 2-AG accumulation, % of vehicle control at 10 µM (MGL) | SMILES | other results |
| --- | --- | --- |
| – | Cc1c(C(=O)N2CC(N3CCN(C(=O)c4ccns4)CC3)C2)sc2cc(C(F)(F)F)ccc12 [Cpd 692] | Rat Brain 2AG % VehCntrl (%) @ 1 μM (MGL; compound 1 μM): 284% |
| 365% | O=C(c1ccccc1)N1CCN(C2CN(C(=O)c3ccc(-c4cccc(F)c4)cc3)C2)CC1 [Cpd 195, 1-{1-[(3′-Fluorobiphenyl-4-yl)carbonyl]azetidin-3-yl}-4-(phenylcarbonyl)piperazine] | – |
| 198% | O=C(c1ccccc1)N1CCN(C2CN(C(=O)c3ccc(OC4CCCCC4)cc3)C2)CC1 [Cpd 435, 1-(1-{[4-(Cyclohexyloxy)phenyl]carbonyl}azetidin-3-yl)-4-(phenylcarbonyl)piperazine] | – |
| 582% | Cc1nc(-c2cccs2)sc1C(=O)N1CC(N2CCN(C(=O)c3nccs3)CC2)C1 [Cpd 134, 1-{1-[(4-Methyl-2-thiophen-2-yl-1,3-thiazol-5-yl)carbonyl]azetidin-3-yl}-4-(1,3-thiazol-2-ylcarbonyl)piperazine] | – |
| 661% | O=C(c1ccc(-c2cccs2)cc1)N1CC(N2CCN(C(=O)c3nccs3)CC2)C1 [Cpd 138, 1-(1,3-Thiazol-2-ylcarbonyl)-4-{1-[(4-thiophen-2-ylphenyl)carbonyl]azetidin-3-yl}piperazine] | – |
| – | O=C(c1ccc2c(c1)CCCN2C(=O)c1ccc(C(F)(F)F)cc1)N1CC(N2CCN(C(=O)c3nccs3)CC2)C1 [Cpd 365, 6-({3-[4-(1,3-Thiazol-2-ylcarbonyl)piperazin-1-yl]azetidin-1-yl}carbonyl)-1-(4-trifluoromethylbenzoyl)-1,2,3,4-tetrahydroquinoline] | 2-AG accumulation, % of vehicle control at 1 µM (MGL; compound 1 μM): 971% |
| 612% | Cc1nc(-c2ccc(C(F)(F)F)cc2)sc1C(=O)N1CC(N2CCN(C(=O)c3nccs3)CC2)C1 [Cpd 136, 1-[1-({4-Methyl-2-[4-(trifluoromethyl)phenyl]-1,3-thiazol-5-yl}carbonyl)azetidin-3-yl]-4-(1,3-thiazol-2-ylcarbonyl)piperazine] | – |
| 441% | O=C(c1cccc(-c2cccs2)c1)N1CC(N2CCN(C(=O)c3nccs3)CC2)C1 [Cpd 137, 1-(1,3-Thiazol-2-ylcarbonyl)-4-{1-[(3-thiophen-2-ylphenyl)carbonyl]azetidin-3-yl}piperazine] | – |
| 956% | O=C(c1ccc(-c2cccc3ncccc23)cc1)N1CC(N2CCN(C(=O)c3nccs3)CC2)C1 [Cpd 184, 5-[4-({3-[4-(1,3-Thiazol-2-ylcarbonyl)piperazin-1-yl]azetidin-1-yl}carbonyl)phenyl]quinoline] | – |
| 769% | COc1cc(F)c(F)cc1-c1ccc(C(=O)N2CC(N3CCN(C(=O)c4nccs4)CC3)C2)cc1 [Cpd 214, 1-{1-[(4′,5′-Difluoro-2′-methoxybiphenyl-4-yl)carbonyl]azetidin-3-yl}-4-(1,3-thiazol-2-ylcarbonyl)piperazine] | – |
| 506% | CC(C)Oc1cccc(-c2ccc(C(=O)N3CC(N4CCN(C(=O)c5ccccc5)CC4)C3)cc2)c1 [Cpd 188, 1-(1-{[3′-(1-Methylethoxy)biphenyl-4-yl]carbonyl}azetidin-3-yl)-4-(phenylcarbonyl)piperazine] | – |
| 764% | O=C(c1ccc(-c2cccc(O)c2)cc1)N1CC(N2CCN(C(=O)c3nccs3)CC2)C1 [Cpd 218, 4′-({3-[4-(1,3-Thiazol-2-ylcarbonyl)piperazin-1-yl]azetidin-1-yl}carbonyl)biphenyl-3-ol] | – |
| 396% | CC(C)(C)OC(=O)N1CCc2cc(C(=O)N3CC(N4CCN(C(=O)c5ccccc5)CC4)C3)ccc2C1 [Cpd 319, tert-Butyl 6-({3-[4-(phenylcarbonyl)piperazin-1-yl]azetidin-1-yl}carbonyl)-3,4-dihydroisoquinoline-2(1H)-carboxylate] | – |
| 567% | Nc1cccc(-c2ccc(C(=O)N3CC(N4CCN(C(=O)c5nccs5)CC4)C3)cc2)c1 [Cpd 230, 4′-({3-[4-(1,3-Thiazol-2-ylcarbonyl)piperazin-1-yl]azetidin-1-yl}carbonyl)biphenyl-3-amine] | – |
| 498% | O=C(c1ccccc1)N1CCN(C2CN(C(=O)c3ccc4c(c3)CCN(C(=O)C3CCCCC3)C4)C2)CC1 [Cpd 350, 2-(Cyclohexylcarbonyl)-6-({3-[4-(phenylcarbonyl)piperazin-1-yl]azetidin-1-yl}carbonyl)-1,2,3,4-tetrahydroisoquinoline] | – |
